Assay results as given in patent US20190083398A1 (ZheJiang Chinese Medical University, priority 2016, published 2019).

Test: Solubility (descriptive)
Assay type: physicochemical
Conditions: 0.9% NaCl release medium
Source text: The samples at each sampling point are filtered through a 0.45 μm microporous film and injected for analysis.

CC(C)[C@@H](C)/C=C/[C@@H](C)[C@H]1CC[C@H]2C3=CC=C4C[C@@H](O)CC[C@]4(C)[C@H]3CC[C@]12C [ergosterol]
solubility in the release medium: very low
